Literature values, collected in US7658956B2, “Erectile dysfunction phyto-nutraceutical synergistic composition” (priority 2006, dated 2010).

Key:
[1] = tested on: bacterial resistance mechanism (multidrug pump)
[2] = tested on: patients with erectile dysfunction; details: 30 patients per group
spermatozoa = details: in vitro

COc1cc([C@H]2Oc3cc(-c4cc(=O)c5c(O)cc(O)cc5o4)cc(OC)c3O[C@@H]2CO)ccc1O (racemic) [5′-MHC, 5′-methoxyhydnocarpin]
accumulation of berberine in the cells ([1]; in the presence of 5′-MHC): strong increase | activity of herbal Berberine alkaloids under the action of 5′-MHC ([1]; in vitro): strongly potentiated

C[C@H](CC[C@@]1(O)O[C@H]2C[C@H]3[C@@H]4CC=C5C[C@@H](O[C@@H]6O[C@H](CO)[C@@H](O[C@@H]7O[C@@H](C)[C@H](O)[C@@H](O)[C@H]7O)[C@H](O)[C@H]6O[C@@H]6O[C@@H](C)[C@H](O)[C@@H](O)[C@H]6O)CC[C@]5(C)[C@H]4CC[C@]3(C)[C@H]2[C@@H]1C)CO[C@@H]1O[C@H](CO)[C@@H](O)[C@H](O)[C@H]1O [Protodioscin]
pro-erectile activity (relaxant effect) (rabbit corpus cavernosum): pro-erectile activity

O=c1n(CCCN2CCN(c3cccc(Cl)c3)CC2)nc2ccccn12 [trazodone]
overall therapeutic efficacies on erectile dysfunction [2]: 30%

Vitamin E
ROS mediated damage on spermatozoa (spermatozoa): protects against ROS mediated damage | treated patients who impregnated their spouses (asthenospermic patients; Eleven out of 52 treated patients): 21% | MDA concentration in spermatozoa (asthenospermic patients; oral, asthenospermic patients): significantly decreased | sperm motility (asthenospermic patients; oral, asthenospermic patients): improved sperm motility
